The values below come from US6653081B2, “Methods for monitoring antiretroviral therapy and guiding therapeutic decision in the treatment of HIV/AIDS” (ViroLogic, Inc., priority 2000, dated 2003).

Test [1] deals with RTV-1033-3/106V/227F/286T. Put plainly: Phenotypic susceptibility assay, RTV-1033-3/106V/227F/286T. Format: cell-based, HIV. The conditions noted are these: RTV-1033-3 with V106A, F227L and T286A reverted. An excerpt:
The resistance test vectors containing a functional luciferase gene cassette were constructed and host cells were transfected with the resistance test vector DNA. The resistant test vectors contained patient-derived reverse transcriptase and protease sequences that were either susceptible or resistant to the antiretroviral agents, such as nucleoside reverse transcriptase inhibitors, (NRTIs) non-nucleoside reverse transcriptase inhibitors […] protease inhibitors. The resistance test vector viral particles produced by transfecting the resistance test vector DNA into host cells, either in the presence or absence of PRIs, were used to infect target host cells grown either in the absence of NRTIs or NNRTIs, or in the presence of increasing concentrations of the drug. The amount of luciferase activity produced in infected target host cells in the presence of varying concentrations of drug was compared to the amount of luciferase produced in infected target host cells in the absence of drug. “Drug resistance” was measured as the amount of drug required to inhibit by 50% the luciferase activity detected in the absence of drug (inhibitory concentration 50%, IC50). The IC50 values were determined by plotting percent drug inhibition vs. log10 drug concentration. Stimulation of viral replication was measured as the percent increase in luciferase activity detected when infection occurs in the presence of drug as compared to in the absence of drug.
Host cells were seeded in 10-cm-diameter dishes and were transfected several days after plating with resistance test vector plasmid DNA and the envelope expression vector. Transfections were performed using a calcium-phosphate precipitation procedure. The cell culture media containing the DNA precipitate was replaced with fresh medium, from one to 24 hours, after transfection. Cell culture media containing resistance test vector viral particles was harvested one to four days after transfection and was passed through a […] filter before being used to infect target host cells, or being stored at −80° C. HIV capsid protein (p24) levels in the harvested cell culture media were determined by an EIA method as described by the manufacturer (SAIC; Frederick, Md.). Before infection, target cells (293 and 293/T) were plated in cell culture media. Control infections were performed using cell culture media from mock transfections (no DNA) or transfections containing the resistance test vector plasmid DNA without the envelope expression plasmid. One to three or more days after infection, the media was removed and cell lysis buffer (Promega) was added to each well. Cell lysates were assayed for luciferase activity (FIG. 3). The inhibitory effect of the drug was determined using the following equation:
% luciferase inhibition=1−(RLUluc[drug]÷RLUluc)×100
where RLUluc [drug] is the Relative Light Unit of luciferase activity in infected cells in the presence of drug, and RLUluc is the Relative Light Unit of luciferase activity in infected cells in the absence of drug. IC50values were obtained from the sigmoidal curves that were generated from the data by plotting the percent inhibition of luciferase activity vs. the log10 drug concentration. The percent luciferase stimulation is the negative of the % inhibition calculated using the formula above.
A resistance test vector containing all of the mutations present in RTV-1033-3 except for V106A, F227L and T286A (RTV-1033-3/106V/227F/286T) was constructed and tested using the phenotypic assay described earlier. The results were compared to those determined using the parent RTV-1033-3. We determined the pattern of phenotypic susceptibility to the NNRTIs, delavirdine, nevirapine and efavirenz, in the reverted vector, RTV-1033-3/106V/227F/286T.

In test [2] the test system is Patient-derived resistance test vectors containing mutations at 241 in addition to other NNRTI-resistance mutations. Put plainly: Phenotypic susceptibility assay, patient-derived RTVs with mutations at 241. Format: cell-based, HIV. The conditions noted are these: 241 plus e.g. 101, 103, 106, 135, 138, 190. The text has this:
The resistance test vectors containing a functional luciferase gene cassette were constructed and host cells were transfected with the resistance test vector DNA. The resistant test vectors contained patient-derived reverse transcriptase and protease sequences that were either susceptible or resistant to the antiretroviral agents, such as nucleoside reverse transcriptase inhibitors, (NRTIs) non-nucleoside reverse transcriptase inhibitors (NRTIs) and protease inhibitors. […] The IC50 values were determined by plotting percent drug inhibition vs. log10 drug concentration. Stimulation of viral replication was measured as the percent increase in luciferase activity detected when infection occurs in the presence of drug as compared to in the absence of drug.
Host cells were seeded in 10-cm-diameter dishes and were transfected several days after plating with resistance test vector plasmid DNA and the envelope expression vector. […] HIV capsid protein (p24) levels in the harvested cell culture media were determined by an EIA method as described by the manufacturer (SAIC; Frederick, Md.). […] The inhibitory effect of the drug was determined using the following equation: […]

The subject of the next test is codon 181 mutant HIV-1. To be noted: cited from earlier work.
The test system of a further test is viral load. As to the kind of experiment: Viral load measurements in patient (Example 14). The format is in vivo.
The next test concerns the target P236L substitution RT (Human immunodeficiency virus type 1 group M subtype B, UniProt P04585, P823L). To be noted: cited from earlier work.

With `CC(C)Nc1cccnc1N1CCN(C(=O)c2cc3cc(NS(C)(=O)=O)ccc3[nH]2)CC1` [delavirdine], in test [1], the “drug-dependent stimulation of viral replication” value (from here on “drug-dependent stimulation”) was around 60% and the “reductions in susceptibility compared to wild type control RTV” value (“reductions … to wild type control RTV” for short) stood at 3 fold.

As to `O=C1Nc2ccc(Cl)cc2[C@@](C#CC2CC2)(C(F)(F)F)O1` [efavirenz], the reductions in susceptibility in test [2] was above 470 fold. In test [1], the “drug-dependent stimulation” value is around 50% and the “reductions … to wild type control RTV” value is given as 5 fold. Moreover, the “susceptibility / activity in the presence of the Y181C mutation” value with codon 181 mutant HIV-1 is reported as “retains activity”.

Consider `Cc1ccnc2c1NC(=O)c1cccnc1N2C1CC1` [nevirapine], for which the reductions in susceptibility in test [2] is reported as above 600 fold. In addition, in test [1], the “drug-dependent stimulation” value is around 70% and the “reductions … to wild type control RTV” value is listed as 6 fold. For the same compound, the “viral load after removal of nevirapine from the regimen” value in the test with viral load (patient on d4T, nevirapine, nelfinavir, saquinavir, baseline ~1,200,000 copies/ml) is listed as < 300,000 copies/ml. Further, the “reduction in viral load after removal of nevirapine from the regimen” value in the test with viral load (same patient) came to 4 fold. The reduction in sensitivity in the test with codon 181 mutant HIV-1 (Y181C mutation) is reported as 100 fold. Further, the “reduction of the IC50” value at P236L substitution RT is reported as 7- to 10 fold.
